# Assay results published in the supplement of paper PMC9663587.
# Tests used:
# [1] = compound: CC(=O)O[C@H]1C(=O)[C@@]2(C)[C@H]([C@H](OC(=O)c3ccccc3)[C@]3(O)C[C@H](OC(=O)[C@H](O)[C@@H](NC(=O)c4ccccc4)c4ccccc4)C(C)=C1C3(C)C)[C@]1(OC(C)=O)CO[C@@H]1C[C@@H]2O [Paclitaxel]
# [2] = compound: C1=CC2=C(C=CC(=C2)C=C3C(=O)NC(=NCC4=CC=CS4)S3)N=C1 [R0-3306]
# [3] = compound: T1, CN1CC[C@H](c2c(O)cc(O)c3c(=O)cc(-c4ccccc4Cl)oc23)[C@H](O)C1 [Flavopiridol]
# [4] = compound: CCC1=CN=CN=C1N2CCN(CC2)CC3=NC4=C(N3)C=C(C=C4)C(F)(F)F
# [5] = compound: NC1(C(=O)N[C@@H](CCO)c2ccc(Cl)cc2)CCN(c2nc[nH]c3nccc2-3)CC1 [AZD5363]
# [6] = compound: T2, CC(=O)c1c(C)c2cnc(Nc3ccc(N4CCN(CCOCCOCCOCCNC(=O)COc5cccc6c5C(=O)N(C5CCC(=O)NC5=O)C6=O)CC4)cn3)nc2n(C2CCCC2)c1=O [BSJ-03-123]
# [7] = compound: CO[C@@H](C)Cn1c(=O)n(C)c2cnc3ccc(-c4cncc(C(C)(C)O)c4)cc3c21
# [8] = compound: CCOc1cc2ncc(C#N)c(Nc3ccc(OCc4ccccn4)c(Cl)c3)c2cc1NC(=O)/C=C/CN(C)C [Neratinib/HKI272]
# [9] = compound: CC(C)Nc1cc(-c2c[nH]c(C(=O)N[C@H](CO)c3cccc(Cl)c3)c2)c(Cl)cn1 [BVD523]
# [10] = compound: CCN1CCN(Cc2ccc(Nc3ncc(F)c(-c4cc(F)c5nc(C)n(C(C)C)c5c4)n3)nc2)CC1; test: GR value, 72 h; higher = faster growth (1 = untreated, <0 = killing);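 further: breast cancer and non-malignant breast epithelial lines, nine half-log doses, viable cells counted by Hoechst and LIVE/DEAD dye imaging versus time-zero plates and DMSO controls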
# [11] = compound: C=CC(=O)Nc1ccc(C(=O)Nc2[nH]nc3c2CN(C(=O)N[C@H](CN(C)C)c2ccccc2)C3(C)C)cc1 [YKL-5-124]; test: as above
# [12] = compound: CCc1cnn2c(NCc3ccc[n+]([O-])c3)cc(N3CCCC[C@H]3CCO)nc12; test: as above
# [13] = compound: T1, Flavopiridol; test: as above
# [14] = compound: T2, BSJ-03-123; test: as above
# [15] = compound: CN(C)C/C=C/C(=O)Nc1ccc(C(=O)Nc2cccc(Nc3ncc(Cl)c(-c4c[nH]c5ccccc45)n3)c2)cc1 [THZ1]; test: as above
# [16] = compound: CN(C)C/C=C/C(=O)Nc1ccc(C(=O)N2CCC[C@@H](Nc3ncc(Cl)c(-c4c[nH]c5ccccc45)n3)C2)cc1 [THZ531]; test: as above
# [17] = compound: CN(C)C(=O)c1cc2cnc(Nc3ccc(N4CCNCC4)cn3)nc2n1C1CCCC1 [LEE011/Ribociclib]; test: as above
# 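Wherever GR50, 72 h is given: breast cancer and non-malignant breast epithelial cell lines, Deep Dye Drop or Dye Drop imaging, nine half-log doses, GR normalized to time-zero plates and DMSO-only controls.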
cell line,measurement,setting,value
HCC202,"GR50, 72 h",[1],0.00379 µM
same,"GR50, 72 h",[2],5.71 µM
same,"GR50, 72 h",[3],0.14 µM
same,"GR50, 72 h",[4],> 10 µM
same,"GR50, 72 h",[5],> 10 µM
same,"GR50, 72 h",[6],3.36 µM
same,"GR50, 72 h",[7],0.00541 µM
same,"GR50, 72 h",[8],0.0317 µM
same,"GR50, 72 h",[9],> 10 µM
same,GR value,[10]; 0.001 µM,0.929 GR
same,GR value,[10]; 0.003162 µM,0.906 GR
same,GR value,[10]; 0.01 µM,0.876 GR
same,GR value,[10]; 0.03162 µM,0.855 GR
same,GR value,[10]; 0.1 µM,0.809 GR
same,GR value,[10]; 0.3162 µM,0.627 GR
same,GR value,[10]; 1 µM,0.642 GR
same,GR value,[10]; 3.162 µM,0.545 GR
same,GR value,[10]; 10 µM,0.309 GR
same,GR value,[11]; 0.001 µM,0.459 GR
same,GR value,[11]; 0.003162 µM,0.432 GR
same,GR value,[11]; 0.01 µM,0.377 GR
same,GR value,[11]; 0.03162 µM,0.409 GR
same,GR value,[11]; 0.1 µM,0.291 GR
same,GR value,[11]; 0.3162 µM,0.228 GR
same,GR value,[11]; 1 µM,0.337 GR
same,GR value,[11]; 3.162 µM,0.288 GR
same,GR value,[11]; 10 µM,-0.165 GR
same,GR value,[12]; 0.0001 µM,0.96 GR
same,GR value,[12]; 0.0003162 µM,0.998 GR
same,GR value,[12]; 0.001 µM,1.06 GR
same,GR value,[12]; 0.003162 µM,1.03 GR
same,GR value,[12]; 0.01 µM,0.784 GR
same,GR value,[12]; 0.03162 µM,0.0982 GR
same,GR value,[12]; 0.1 µM,0.14 GR
same,GR value,[12]; 0.3162 µM,0.0849 GR
same,GR value,[12]; 1 µM,0.0949 GR
same,GR value,[13]; 0.0001 µM,1.09 GR
same,GR value,[13]; 0.0003162 µM,1.05 GR
same,GR value,[13]; 0.001 µM,0.845 GR
same,GR value,[13]; 0.003162 µM,0.773 GR
same,GR value,[13]; 0.01 µM,0.976 GR
same,GR value,[13]; 0.03162 µM,0.893 GR
same,GR value,[13]; 0.1 µM,0.68 GR
same,GR value,[13]; 0.3162 µM,0.24 GR
same,GR value,[13]; 1 µM,0.0609 GR
same,GR value,[14]; 0.001 µM,0.979 GR
same,GR value,[14]; 0.003162 µM,0.927 GR
same,GR value,[14]; 0.01 µM,0.777 GR
same,GR value,[14]; 0.03162 µM,0.873 GR
same,GR value,[14]; 0.1 µM,0.889 GR
same,GR value,[14]; 0.3162 µM,0.829 GR
same,GR value,[14]; 1 µM,0.666 GR
same,GR value,[14]; 3.162 µM,0.768 GR
same,GR value,[14]; 10 µM,0.0981 GR
same,GR value,[15]; 0.0001 µM,0.915 GR
same,GR value,[15]; 0.0003162 µM,1.02 GR
same,GR value,[15]; 0.001 µM,0.961 GR
same,GR value,[15]; 0.003162 µM,0.866 GR
same,GR value,[15]; 0.01 µM,0.8 GR
same,GR value,[15]; 0.03162 µM,0.397 GR
same,GR value,[15]; 0.1 µM,0.154 GR
same,GR value,[15]; 0.3162 µM,0.0808 GR
same,GR value,[15]; 1 µM,0.0457 GR
same,GR value,[16]; 0.0001 µM,1.12 GR
same,GR value,[16]; 0.0003162 µM,0.893 GR
same,GR value,[16]; 0.001 µM,0.907 GR
same,GR value,[16]; 0.003162 µM,1.12 GR
same,GR value,[16]; 0.01 µM,0.883 GR
same,GR value,[16]; 0.03162 µM,0.809 GR
same,GR value,[16]; 0.1 µM,0.411 GR
same,GR value,[16]; 0.3162 µM,0.0512 GR
same,GR value,[16]; 1 µM,0.151 GR
same,GR value,[17]; 0.001 µM,0.881 GR
same,GR value,[17]; 0.003162 µM,1.03 GR
same,GR value,[17]; 0.01 µM,1.03 GR
same,GR value,[17]; 0.03162 µM,0.891 GR
same,GR value,[17]; 0.1 µM,1.03 GR
same,GR value,[17]; 0.3162 µM,0.883 GR
same,GR value,[17]; 1 µM,0.833 GR
same,GR value,[17]; 3.162 µM,0.813 GR
same,GR value,[17]; 10 µM,0.829 GR
